Assay results from patent US20240226115A1, “AXL INHIBITOR COMPOUNDS” (ARCUS BIOSCIENCES, INC., priority 2021, published 2024).

These molecules were tested against T1, recombinant human TYRO3 (Homo sapiens, UniProt Q06418) (assay: HTRF KinEASE-TK biochemical potency, TYRO3). Settings: 1 nM TYRO3, 700 μM ATP.
T1 construct: purchased Invitrogen
T1 sequence (Q06418 41-890): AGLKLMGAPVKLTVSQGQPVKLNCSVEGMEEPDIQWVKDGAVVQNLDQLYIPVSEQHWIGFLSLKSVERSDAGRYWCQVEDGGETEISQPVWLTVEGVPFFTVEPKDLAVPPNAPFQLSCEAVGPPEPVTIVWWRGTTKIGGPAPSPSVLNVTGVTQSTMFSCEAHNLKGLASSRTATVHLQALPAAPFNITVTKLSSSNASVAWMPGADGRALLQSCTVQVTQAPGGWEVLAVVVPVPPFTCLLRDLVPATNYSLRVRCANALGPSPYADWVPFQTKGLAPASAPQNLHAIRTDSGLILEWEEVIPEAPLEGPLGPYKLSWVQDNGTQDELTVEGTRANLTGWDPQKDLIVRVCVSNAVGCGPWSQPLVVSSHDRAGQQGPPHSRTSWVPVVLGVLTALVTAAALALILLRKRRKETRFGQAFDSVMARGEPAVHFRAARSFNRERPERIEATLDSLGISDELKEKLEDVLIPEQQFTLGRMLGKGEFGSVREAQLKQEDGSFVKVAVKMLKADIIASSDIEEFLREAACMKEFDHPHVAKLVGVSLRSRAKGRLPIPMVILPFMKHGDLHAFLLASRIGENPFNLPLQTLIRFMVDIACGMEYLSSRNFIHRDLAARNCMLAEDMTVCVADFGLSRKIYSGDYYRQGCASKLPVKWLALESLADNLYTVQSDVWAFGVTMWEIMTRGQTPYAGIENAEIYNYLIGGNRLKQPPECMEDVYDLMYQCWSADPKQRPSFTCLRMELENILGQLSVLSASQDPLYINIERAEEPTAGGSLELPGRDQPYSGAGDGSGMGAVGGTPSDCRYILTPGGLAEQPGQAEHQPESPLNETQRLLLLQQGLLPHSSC
Method: Purified recombinant human AXL, TYRO3 and MER proteins were purchased from Invitrogen™. 10 nM AXL, 2 nM TYRO3 or MER were incubated with varying concentrations of compounds in 50 mM HEPES, pH 7.4, 10 mM MgCl2, 0.01% BSA, 1 mM DTT and 2% DMSO in a total volume of 20 μl in a 384-well microplate (Corning™ #3640) at RT for 1 h. The AXL, TYRO3 and MER enzymatic reaction was initiated by transferring 10 μl of enzyme and compound mixture into 10 μl of 1.6 μM TK Substrate-biotin (HTRF® KinEASE-TK kit, Cisbio) and 1400 μM ATP pre-incubated in 50 mM HEPES, pH 7.4, 10 mM MgCl2, 0.01% BSA, 1 mM DTT in a 384-well microplate (Corning™ #3640) at RT, giving the final reaction conditions: 5 nM AXL, 1 nM TYRO3 or MER, 800 nM TK Substrate-biotin and 700 μM ATP in 50 mM HEPES, pH 7.4, 10 mM MgCl2, 0.01% BSA, 1 mM DTT and 1% DMSO with varying concentrations of compounds. Following 2 h incubation at RT, the AXL, TYRO3 and MER enzymatic reaction was stopped by transfer of 10 μl of reaction into 10 μl of detection mix (400 nM Streptavidin-XL665, 200-fold dilution TK Antibody-Cryptate and detection buffer, HTRF® KinEASE-TK kit, Cisbio) in a white 384-well microplate (Perkin Elmer, OptiPlate 384). After 1 h incubation at RT, the plate was put into a plate reader (Evision) to read at 665/620 nm (acceptor/donor) for HTRF. The value of the DMSO blank (MIN inhibition=100% activity) was used as a negative control. The positive control was established by adding 5 μl of enzyme and DMSO mixture into 10 μl of detection mix followed by addition of 5 μl of TK Substrate-biotin and ATP mixture (MAX inhibition=0% activity). To calculate the percent activity, Equation 1 was used. Ratio665/620 is the value at a given compound concentration: […]

Row | Compound | IC50 [µM]
1 | C[C@@H]1CCCN1C1(C)CCc2ccc(-c3cnc4[nH]nc(-c5ccc6c(c5)OCCNC6=O)c4c3)cc2CC1 (stereo partly drawn) [Example 23, 8-(5-{7-Methyl-7-[(2R)-2-methylpyrrolidin-1-yl]-6,7,8,9-tetrahydro-5H-benzo[7]annulen-2-yl}-1H-pyrazolo[3,4-b]pyridin-3-yl)-2,3,4,5-tetrahydro-1,4-benzoxazepin-5-one] | < 0.1
2 | C[C@H]1CCCN1C1(C)CCc2ccc(-c3cnc4[nH]nc(-c5ccc6c(c5)OCCNC6=O)c4c3)cc2CC1 (stereo partly drawn) [Example 24, 8-(5-{7-Methyl-7-[(2S)-2-methylpyrrolidin-1-yl]-6,7,8,9-tetrahydro-5H-benzo[7]annulen-2-yl}-1H-pyrazolo[3,4-b]pyridin-3-yl)-2,3,4,5-tetrahydro-1,4-benzoxazepin-5-one] | < 0.1
3 | CC[C@@H]1CCCN1C1CCc2ccc(-c3cnc4[nH]nc(-c5ccc6c(c5)OCCNC6=O)c4c3)cc2CC1 (stereo partly drawn) [Example 25, 8-(5-{7-[(2R)-2-Ethylpyrrolidin-1-yl]-6,7,8,9-tetrahydro-5H-benzo[7]annulen-2-yl}-1H-pyrazolo[3,4-b]pyridin-3-yl)-2,3,4,5-tetrahydro-1,4-benzoxazepin-5-one] | < 0.1
4 | CC1(O)CCOc2cc(-c3n[nH]c4ncc(-c5ccc6c(c5)CCN(C5CCCC5)CC6)cc34)ccc21 (stereo not shown) [Example 26, 7-[5-(3-Cyclopentyl-2,3,4,5-tetrahydro-1H-3-benzazepin-7-yl)-1H-pyrazolo[3,4-b]pyridin-3-yl]-4-methyl-3,4-dihydro-2H-1-benzopyran-4-ol] | < 0.1
5 | CC1(O)CCCCc2cc(-c3n[nH]c4ncc(-c5ccc6c(c5)CCN(C5CCCC5)CC6)cc34)ccc21 (stereo not shown) [Example 27, 2-[5-(3-Cyclopentyl-2,3,4,5-tetrahydro-1H-3-benzazepin-7-yl)-1H-pyrazolo[3,4-b]pyridin-3-yl]-5-methyl-6,7,8,9-tetrahydro-5H-benzo[7]annulen-5-ol] | 0.1 to 1
6 | CC1(O)CCCOc2cc(-c3n[nH]c4ncc(-c5ccc6c(c5)CCN(C5CCCC5)CC6)cc34)ccc21 (stereo not shown) [Example 28, (8-[5-(3-Cyclopentyl-2,3,4,5-tetrahydro-1H-3-benzazepin-7-yl)-1H-pyrazolo[3,4-b]pyridin-3-yl]-5-methyl-2,3,4,5-tetrahydro-1-benzoxepin-5-ol)] | 0.1 to 1
7 | C[C@@H]1CCCN1C1CCc2ccc(-c3cnc4[nH]nc(-c5ccc6c(c5)OCCC6(C)O)c4c3)cc2CC1 (stereo partly drawn) [Example 29, 4-Methyl-7-(5-{7-[(2R)-2-Methylpyrrolidin-1-yl]-6,7,8,9-tetrahydro-5H-benzo[7]annulen-2-yl}-1H-pyrazolo[3,4-b]pyridin-3-yl)-3,4-dihydro-2H-1-benzopyran-4-ol] | < 0.1
8 | CC1(O)CCc2cc(-c3n[nH]c4ncc(-c5ccc6c(c5)CC[C@@H](N5CCCC5)CC6)cc34)ccc21 (stereo partly drawn) [Example 30, 1-Methyl-5-{5-[(7S)-7-(pyrrolidin-1-yl)-6,7,8,9-tetrahydro-5H-benzo[7]annulen-2-yl]-1H-pyrazolo[3,4-b]pyridin-3-yl}-2,3-dihydro-1H-inden-1-ol] | < 0.1
9 | CC1(O)CCOc2cc(-c3n[nH]c4ncc(-c5ccc6c(c5)CC[C@@H](N5CCCC5)CC6)cc34)ccc21 (stereo partly drawn) [Example 31, 4-Methyl-7-{5-[(7S)-7-(pyrrolidin-1-yl)-6,7,8,9-tetrahydro-5H-benzo[7]annulen-2-yl]-1H-pyrazolo[3,4-b]pyridin-3-yl}-3,4-dihydro-2H-1-benzopyran-4-ol] | < 0.1
10 | CC1(C)NS(=O)(=O)c2cc(-c3n[nH]c4ncc(-c5ccc6c(c5)CCC(N5CCCC5)CC6)cc34)ccc21 (stereo not shown) [Example 32, 3,3-Dimethyl-6-{5-[7-(pyrrolidin-1-yl)-6,7,8,9-tetrahydro-5H-benzo[7]annulen-2-yl]-1H-pyrazolo[3,4-b]pyridin-3-yl}-2,3-dihydro-1λ^6,2-benzothiazole-1,1-dione] | < 0.1
11 | C[C@@H]1CCCN1C1CCc2ccc(-c3cnc4[nH]nc(-c5ccc6c(c5)S(=O)(=O)NC6(C)C)c4c3)cc2CC1 (stereo partly drawn) [Example 33, 3,3-Dimethyl-6-(5-{7-[(2R)-2-methylpyrrolidin-1-yl]-6,7,8,9-tetrahydro-5H-benzo[7]annulen-2-yl}-1H-pyrazolo[3,4-b]pyridin-3-yl)-2,3-dihydro-1λ^6,2-benzothiazole-1,1-dione] | < 0.1
12 | CC1(C)NS(=O)(=O)c2cc(-c3n[nH]c4ncc(-c5ccc6c(c5)CCC(N5CCC[C@@H]5CO)CC6)cc34)ccc21 (stereo partly drawn) [Example 34, 6-(5-{7-[(2R)-2-(Hydroxymethyl)pyrrolidin-1-yl]-6,7,8,9-tetrahydro-5H-benzo[7]annulen-2-yl}-1H-pyrazolo[3,4-b]pyridin-3-yl)-3,3-dimethyl-2,3-dihydro-1λ^6,2-benzothiazole-1,1-dione] | < 0.1

More lines, now with the values ahead:

Row | IC50 [µM] | Compound
13 | < 0.1 | CC1(C)COc2cc(-c3n[nH]c4ncc(-c5ccc6c(c5)CCC(N5CCCC5)CC6)cc34)ccc2C(=O)N1 (stereo not shown) [Example 35, 3,3-Dimethyl-8-{5-[7-(pyrrolidin-1-yl)-6,7,8,9-tetrahydro-5H-benzo[7]annulen-2-yl]-1H-pyrazolo[3,4-b]pyridin-3-yl}-2,3,4,5-tetrahydro-1,4-benzoxazepin-5-one]
14 | < 0.1 | C[C@@H]1CCCN1C1CCc2ccc(-c3cnc4[nH]nc(-c5ccc6c(c5)OCC5(CC5)NC6=O)c4c3)cc2CC1 (stereo partly drawn) [Example 36, 8-(5-{7-[(2R)-2-Methylpyrrolidin-1-yl]-6,7,8,9-tetrahydro-5H-benzo[7]annulen-2-yl}-1H-pyrazolo[3,4-b]pyridin-3-yl)-4,5-dihydro-2H-spiro[1,4-benzoxazepine-3,1′-cyclopropan]-5-one]
15 | < 0.1 | C[C@@H]1CCCN1C1CCc2ccc(-c3cnc4[nH]nc(-c5ccc6c(c5)OCC5(CCC5)NC6=O)c4c3)cc2CC1 (stereo partly drawn) [Example 37, 8-(5-{7-[(2R)-2-Methylpyrrolidin-1-yl]-6,7,8,9-tetrahydro-5H-benzo[7]annulen-2-yl}-1H-pyrazolo[3,4-b]pyridin-3-yl)-4,5-dihydro-2H-spiro[1,4-benzoxazepine-3,1′-cyclobutan]-5-one]
16 | < 0.1 | C[C@@H]1CCCN1C1CCc2ccc(-c3cnc4[nH]nc(-c5ccc6c(c5)C(=O)NC6(C)C)c4c3)cc2CC1 (stereo partly drawn) [Example 38, 3,3-Dimethyl-6-(5-{7-[(2R)-2-methylpyrrolidin-1-yl]-6,7,8,9-tetrahydro-5H-benzo[7]annulen-2-yl}-1H-pyrazolo[3,4-b]pyridin-3-yl)-2,3-dihydro-1H-isoindol-1-one]
17 | < 0.1 | C[C@H]1CCCN1C1Cc2ccc(-c3cnc4[nH]nc(-c5ccc6c(c5)OCC(C)(C)NC6=O)c4c3)cc2C1 (stereo partly drawn) [Example 39, 3,3-Dimethyl-8-(5-{2-[(2S)-2-methylpyrrolidin-1-yl]-2,3-dihydro-1H-inden-5-yl}-1H-pyrazolo[3,4-b]pyridin-3-yl)-2,3,4,5-tetrahydro-1,4-benzoxazepin-5-one]
18 | < 0.1 | Cc1cc2c(cc1-c1n[nH]c3ncc(-c4ccc5c(c4)CCC(N4CCC[C@H]4C)CC5)cc13)OCCNC2=O (stereo partly drawn) [Example 40, 7-Methyl-8-(5-{7-[(2R)-2-methylpyrrolidin-1-yl]-6,7,8,9-tetrahydro-5H-benzo[7]annulen-2-yl}-1H-pyrazolo[3,4-b]pyridin-3-yl)-2,3,4,5-tetrahydro-1,4-benzoxazepin-5-one]
19 | < 0.1 | Cc1c(-c2n[nH]c3ncc(-c4ccc5c(c4)CCC(N4CCC[C@H]4C)CC5)cc23)ccc2c1OCCNC2=O (stereo partly drawn) [Example 41, 9-Methyl-8-(5-{7-[(2R)-2-methylpyrrolidin-1-yl]-6,7,8,9-tetrahydro-5H-benzo[7]annulen-2-yl}-1H-pyrazolo[3,4-b]pyridin-3-yl)-2,3,4,5-tetrahydro-1,4-benzoxazepin-5-one]
